Measurements taken from PubChem BioAssay (NCI).
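Each compound was tested at five concentrations against cells in 96-well plates for 48 hours. At the GI50, growth is halved. TGI marks complete inhibition of growth.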 *1 amine or outer side, *2 acyl side, *3 side chain or, on linkers, in order; H or OH if unused. Where a SMILES comes first, the peptide text is derived from it. Bridges are numbered along the chain shown (N, C = ends). [ ]: non-standard residue; d: D form. The star is where a group is joined. Phe(3,5-F2) = N[C@@H](Cc1cc(F)cc(F)c1)C(=O)O; Pro(4R-Me) = C[C@H]1CN[C@H](C(=O)O)C1; aThr = C[C@H](O)[C@H](N)C(=O)O; Pip = O=C(O)[C@@H]1CCCCN1; X10 = Fc1cc(C2CC2)ccc1N*; CO = O=C([*:1])[*:2]

Tests used:
Assay in all cases: NCI-60 cell line screen, 48 h
MDA-MB-468 breast = tested on: MDA-MB-468 breast
786-0 renal = tested on: 786-0 renal
A549 NSCLC = tested on: A549 NSCLC
ACHN renal = tested on: ACHN renal
CAKI-1 renal = tested on: CAKI-1 renal
DU-145 prostate = tested on: DU-145 prostate
EKVX NSCLC = tested on: EKVX NSCLC
HCC-2998 colon = tested on: HCC-2998 colon
HCT-15 colon = tested on: HCT-15 colon
HL-60(TB) leukemia = tested on: HL-60(TB) leukemia
HOP-62 NSCLC = tested on: HOP-62 NSCLC
HOP-92 NSCLC = tested on: HOP-92 NSCLC
HT29 colon = tested on: HT29 colon
IGROV1 ovarian = tested on: IGROV1 ovarian
K-562 leukemia = tested on: K-562 leukemia
KM12 colon = tested on: KM12 colon
M14 melanoma = tested on: M14 melanoma
MALME-3M melanoma = tested on: MALME-3M melanoma
MCF7 breast = tested on: MCF7 breast
MDA-MB-231 breast = tested on: MDA-MB-231 breast
MDA-MB-435 = tested on: MDA-MB-435
MOLT-4 leukemia = tested on: MOLT-4 leukemia
NCI-H226 lung = tested on: NCI-H226 lung
NCI-H23 lung = tested on: NCI-H23 lung
NCI-H460 lung = tested on: NCI-H460 lung
NCI-H522 lung = tested on: NCI-H522 lung
OVCAR-3 ovarian = tested on: OVCAR-3 ovarian
OVCAR-4 ovarian = tested on: OVCAR-4 ovarian
OVCAR-5 ovarian = tested on: OVCAR-5 ovarian
OVCAR-8 ovarian = tested on: OVCAR-8 ovarian
PC-3 prostate = tested on: PC-3 prostate
RPMI-8226 leukemia = tested on: RPMI-8226 leukemia
SF-268 CNS = tested on: SF-268 CNS
SF-295 CNS = tested on: SF-295 CNS
SF-539 CNS = tested on: SF-539 CNS
SK-MEL-5 melanoma = tested on: SK-MEL-5 melanoma
SN12C renal = tested on: SN12C renal
SNB-19 CNS = tested on: SNB-19 CNS
SNB-75 CNS = tested on: SNB-75 CNS
SR leukemia = tested on: SR leukemia
SW-620 colon = tested on: SW-620 colon
T-47D breast = tested on: T-47D breast
U251 CNS = tested on: U251 CNS
UACC-257 melanoma = tested on: UACC-257 melanoma
UO-31 renal = tested on: UO-31 renal

Compound: CC1CCc2nc[nH]c(=O)c21 (stereo not given)
- GI50 (MDA-MB-468 breast): > 100 µM
- TGI (MDA-MB-468 breast): > 100 µM

Compound: CN(C)c1ccc(/C=C\C2=[N+](C)c3ccccc3C2(C)C)cc1
- GI50 (MDA-MB-468 breast): 0.287 µM
- TGI (MDA-MB-468 breast): 5.08 µM

Compound: COC1/C=C/OC2(C)Oc3c(C)c(O)c4c(O)c(c(/C=N/Nc5ccc([N+](=O)[O-])cc5[N+](=O)[O-])c(O)c4c3C2=O)NC(=O)C(C)=C/C=C/C(C)C(O)C(C)C(O)C(C)C(OC(C)=O)C1C (stereo not given)
- GI50 (MDA-MB-468 breast): 1.11 µM
- TGI (MDA-MB-468 breast): 2.86 µM

Compound: Cn1cc(C2=C(c3c4n(c5ccccc35)CCCCC4)C(=O)NC2=O)c2ccccc21
- GI50 (MDA-MB-468 breast): 1.17 µM
- TGI (MDA-MB-468 breast): > 19.9 µM

Compound: CN1CCCCC1CCN1c2ccccc2Sc2ccc(Cl)cc21 (stereo not given)
- GI50 (MDA-MB-468 breast): 1.94 µM
- TGI (MDA-MB-468 breast): 4.44 µM

Compound: C[C@@H]1C[C@H]2C(=O)O[C@@H](C)[C@H](NC(=O)[C@H](Cc3cc(F)cc(F)c3)NC(=O)Nc3ccc(C4CC4)cc3F)C(=O)N3CCC[C@H]3C(=O)N3CCCC[C@H]3C(=O)N[C@@H](C)C(=O)N2C1 ({X10-CO}-[Phe(3,5-F2)][aThr]P[Pip]A[Pro(4R-Me)]; ester 2-C)
- GI50 (MDA-MB-468 breast): 0.0257 µM
- TGI (MDA-MB-468 breast): 0.187 µM

Compound: C=CC(=O)Nc1cc(Nc2ncc(C(=O)OC(C)C)c(-c3cn(C)c4ccccc34)n2)c(OC)cc1N(C)CCN(C)C
- GI50 (MDA-MB-468 breast): < 0.01 µM
- TGI (MDA-MB-468 breast): 0.069 µM

Compound: FC(F)(F)c1cccc(Nc2nc(-c3ccccc3)nc3ncccc23)c1
- GI50 (MDA-MB-468 breast): 2.42 µM
- TGI (MDA-MB-468 breast): 7.71 µM

Compound: COC(=O)/C=C1\S/C(=N\NC(=O)c2cc3ccc2/C=C\c2ccc(cc2)/C=C\3)N(c2ccccc2)C1=O
- GI50 (MDA-MB-468 breast): 1.84 µM
- TGI (MDA-MB-468 breast): 3.74 µM

Compound: OCc1cc2ccccc2c2c3c(ccc12)OCO3
- GI50 (MDA-MB-468 breast): 18.9 µM
- TGI (MDA-MB-468 breast): 65.1 µM

Compound: Cc1ccnc2c1ccc1c(C)ccnc12
- GI50 (MDA-MB-468 breast): 0.36 µM
- TGI (MDA-MB-468 breast): 2.72 µM

Compound: Cc1cc(N=C2NC(=O)S/C2=C\c2ccc(F)cc2)n[nH]1
- GI50 (786-0 renal): 3.01 µM
- TGI (786-0 renal): > 100 µM
- GI50 (A549 NSCLC): 3.07 µM
- TGI (A549 NSCLC): > 100 µM
- GI50 (ACHN renal): 3.36 µM
- TGI (ACHN renal): > 100 µM
- GI50 (CAKI-1 renal): 3.81 µM
- TGI (CAKI-1 renal): > 100 µM
- GI50 (DU-145 prostate): 5.33 µM
- TGI (DU-145 prostate): > 100 µM
- GI50 (EKVX NSCLC): 2.69 µM
- TGI (EKVX NSCLC): > 100 µM
- GI50 (HCC-2998 colon): 3.67 µM
- TGI (HCC-2998 colon): > 100 µM
- GI50 (HCT-15 colon): 2.47 µM
- TGI (HCT-15 colon): > 100 µM
- GI50 (HL-60(TB) leukemia): 3.3 µM
- TGI (HL-60(TB) leukemia): > 100 µM
- GI50 (HOP-62 NSCLC): 2.59 µM
- TGI (HOP-62 NSCLC): > 100 µM
- GI50 (HOP-92 NSCLC): 2.62 µM
- TGI (HOP-92 NSCLC): > 100 µM
- GI50 (HT29 colon): 4.09 µM
- TGI (HT29 colon): > 100 µM
- GI50 (IGROV1 ovarian): 2.59 µM
- TGI (IGROV1 ovarian): > 100 µM
- GI50 (K-562 leukemia): 3.32 µM
- TGI (K-562 leukemia): > 100 µM
- GI50 (KM12 colon): 4.13 µM
- TGI (KM12 colon): > 100 µM
- GI50 (M14 melanoma): 2.63 µM
- TGI (M14 melanoma): > 100 µM
- GI50 (MALME-3M melanoma): 3.47 µM
- TGI (MALME-3M melanoma): > 100 µM
- GI50 (MCF7 breast): 2.36 µM
- TGI (MCF7 breast): > 100 µM
- GI50 (MDA-MB-231 breast): 2.95 µM
- TGI (MDA-MB-231 breast): > 100 µM
- GI50 (MDA-MB-435): 3 µM
- TGI (MDA-MB-435): > 100 µM
- GI50 (MOLT-4 leukemia): 2.93 µM
- TGI (MOLT-4 leukemia): > 100 µM
- GI50 (NCI-H226 lung): 2.9 µM
- TGI (NCI-H226 lung): > 100 µM
- GI50 (NCI-H23 lung): 3.63 µM
- TGI (NCI-H23 lung): > 100 µM
- GI50 (NCI-H460 lung): 3.13 µM
- TGI (NCI-H460 lung): > 100 µM
- GI50 (NCI-H522 lung): 2.57 µM
- TGI (NCI-H522 lung): > 100 µM
- GI50 (OVCAR-3 ovarian): 3.13 µM
- TGI (OVCAR-3 ovarian): > 100 µM
- GI50 (OVCAR-4 ovarian): 3.85 µM
- TGI (OVCAR-4 ovarian): > 100 µM
- GI50 (OVCAR-5 ovarian): 3.65 µM
- TGI (OVCAR-5 ovarian): > 100 µM
- GI50 (OVCAR-8 ovarian): 2.76 µM
- TGI (OVCAR-8 ovarian): > 100 µM
- GI50 (PC-3 prostate): 3.37 µM
- TGI (PC-3 prostate): > 100 µM
- GI50 (RPMI-8226 leukemia): 2.27 µM
- TGI (RPMI-8226 leukemia): 6.34 µM
- GI50 (SF-268 CNS): 4.48 µM
- TGI (SF-268 CNS): > 100 µM
- GI50 (SF-295 CNS): 2.79 µM
- TGI (SF-295 CNS): > 100 µM
- GI50 (SF-539 CNS): 2.84 µM
- TGI (SF-539 CNS): > 100 µM
- GI50 (SK-MEL-5 melanoma): 3.16 µM
- TGI (SK-MEL-5 melanoma): > 100 µM
- GI50 (SN12C renal): 3.81 µM
- TGI (SN12C renal): > 100 µM
- GI50 (SNB-19 CNS): 3.2 µM
- TGI (SNB-19 CNS): > 100 µM
- GI50 (SNB-75 CNS): 2.12 µM
- TGI (SNB-75 CNS): > 100 µM
- GI50 (SR leukemia): 2.35 µM
- TGI (SR leukemia): > 100 µM
- GI50 (SW-620 colon): 3.92 µM
- TGI (SW-620 colon): > 100 µM
- GI50 (T-47D breast): 2.58 µM
- TGI (T-47D breast): > 100 µM
- GI50 (U251 CNS): 2.35 µM
- TGI (U251 CNS): > 100 µM
- GI50 (UACC-257 melanoma): 2.82 µM
- TGI (UACC-257 melanoma): > 100 µM
- GI50 (UO-31 renal): 2.33 µM
- TGI (UO-31 renal): > 100 µM
